These results are taken from US11911386B2, “Methods of treating B-cell proliferative disorder” (BeiGene Switzerland GmbH, priority 2022, dated 2024).

For data set [1] the following is noted: cited from earlier work.
The next data set has as its system panel of 370 kinases. The data set can be described thus: Kinome profiling at 100xIC50 (BTK) concentrations. It counts as biochemical. To be noted: 100×IC50 (BTK) concentration.
Data set [2] in a line: RESONATE / RESONATE2 trials: ibrutinib effect (non-inferiority margin derivation). It counts as in vivo, human.
Data set [3] can be described thus: Phase 1 DDI study: treatment-emergent adverse events. It counts as in vivo, human. Conditions: N = 13. As to the method:
Safety was assessed by monitoring and recording of adverse events (AEs), serious adverse events (SAEs), clinical laboratory tests, physical examinations, and vital signs. […] A TEAE was defined as an AE that started during or after the first dose or started before the first dose and increased in severity after the first dose. AEs were classified based on MedDRA Version 24.0.
Safety and tolerability were assessed, when applicable, by incidence, severity, change from baseline values, and abnormal values for all relevant parameters such as AEs, laboratory parameters, vital signs, and physical examination.

For data set [4] the following is noted: cited from earlier work. The source holds these as a separate data set.
The next data set relates to CYP3A. To be noted: coadministration of rifabutin with midazolam; cited from earlier work.
[5] abbreviates: phase 3, relapsed/refractory CLL.

Usually Tmax stands for the time from dosing to the highest level.

As for `CC#CC(=O)N1CCC[C@H]1c1nc(-c2ccc(C(=O)Nc3ccccn3)cc2)c2c(N)nccn12` [acalabrutinib], in data set [1] (setting [5]), the “Arthralgia, any grade” value is on record as 15.8%; the “Atrial fibrillation, any grade” value is 9.0%; the Cough was 28.9%; the “Fatigue grade ≥3” value was 3.4%. In addition, in data set [1] (setting [5]), the Headaches is on record as 34.6%; the “Hypertension, any grade” value was 8.6%; the “Infections grade ≥3” value was 30.8%. Moreover, the Off-target kinases inhibited with panel of 370 kinases was determined as 15 kinases.
Take `C=CC(=O)N1CCC[C@@H](n2nc(-c3ccc(Oc4ccccc4)cc3)c3c(N)ncnc32)C1` [ibrutinib, 1-[(3R)-3-[4-amino-3-(4-phenoxyphenyl)-1H-pyrazolo[3,4-d]pyrimidin-1-yl]-1-piperidinyl]-2-propen-1-one]: the “AEs leading to treatment discontinuation” value in data set [1] (long-term follow-up, 132 patients) is on record as 13%. In the data set on panel of 370 kinases, this compound displayed an Off-target kinases inhibited of 17 kinases. In addition, the “Pooled PFS HR, fixed-effect meta-analysis” value in data set [2] worked out at 0.120.
Turning to `CO[C@H]1/C=C/O[C@@]2(C)Oc3c(C)c(O)c4c(c3C2=O)C2=NC3(CCN(CC(C)C)CC3)NC2=C(NC(=O)/C(C)=C\C=C\[C@H](C)[C@H](O)[C@@H](C)[C@@H](O)[C@@H](C)[C@H](OC(C)=O)[C@@H]1C)C4=O` [rifabutin], in data set [3], the “Chromaturia TEAE” value is reported as 6 (46.2) n (%); the “Overall TEAEs” value is recorded as 6 (46.2) n (%); the “Renal and urinary disorders TEAE” value is on record as 6 (46.2) n (%). In addition, the “Decrease of systemic levels after multiple doses (auto-induction)” value in data set [4] (in vivo) is 38%. For the same compound, in data set [4] (single oral dose of 300 mg), the “Mean t1/2 (standard deviation)” value is listed as 45 (standard deviation, 17) hours and the Tmax was 2 to 4 h. The “Reduction in midazolam exposure” value in the data set on CYP3A was “≈ 3.2 fold”.
